Source: PubChem BioAssay (NCI)
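All cell lines were grown in 96-well plates and treated with compound for 48 hours. TGI denotes the concentration required for complete inhibition of growth.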

Key:
Experiment in all cases: DTP human tumour cell line panel, 48 h
[1] = tested on: SK-MEL-2 melanoma
[2] = tested on: OVCAR-3 ovarian
[3] = tested on: PC-3 prostate
[4] = tested on: K-562 leukemia
[5] = tested on: UO-31 renal
[6] = tested on: UACC-257 melanoma
[7] = tested on: SK-MEL-5 melanoma
[8] = tested on: OVCAR-8 ovarian
[9] = tested on: HCT-15 colon
[10] = tested on: HOP-62 NSCLC
[11] = tested on: KM12 colon
[12] = tested on: NCI-H226 lung
[13] = tested on: SNB-19 CNS

Compound	TGI [1]	TGI [2]	TGI [3]	TGI [4]	TGI [5]	TGI [6]	TGI [7]	TGI [8]	TGI [9]	TGI [10]	TGI [11]	TGI [12]	TGI [13]
N#CC(NNC(=O)c1c(Cl)c(Cl)c(Cl)c(Cl)c1-c1nc2ccc(C(=O)c3ccccc3)cc2[nH]1)c1cccc(Oc2ccccc2)c1 (stereo unspecified)	47.2 µM	> 100 µM	54 µM	> 100 µM	> 100 µM	> 100 µM	38.5 µM	> 100 µM	53.3 µM	70.2 µM	> 100 µM	53.1 µM	90 µM
COc1ccc2c(-c3csc(-c4c[nH]c5ccccc45)n3)c[nH]c2c1	> 86.2 µM	51.7 µM	39.9 µM	> 22.1 µM	30.6 µM	> 90.6 µM	30.6 µM	> 60.6 µM	> 100 µM	49.2 µM	14.8 µM	45.4 µM	> 100 µM
S=C1NNC(=S)NN1	> 1 µM	> 1 µM	> 1 µM	0.478 µM	> 1 µM	> 1 µM	> 1 µM	> 1 µM	> 1 µM	> 1 µM	> 1 µM	> 1 µM	> 1 µM
O=C(Nc1ccccc1C(=O)O)C(=Cc1ccccc1O)NC(=O)c1ccccc1	> 100 µM	> 100 µM	> 100 µM	> 100 µM	> 100 µM	> 100 µM	> 100 µM	> 100 µM	> 100 µM	> 100 µM	> 100 µM	> 100 µM	> 100 µM
Cc1cnc2[nH]c(-c3sccc3C)cc(=O)c2c1	> 100 µM	> 100 µM	> 100 µM	> 100 µM	> 100 µM	> 100 µM	21.7 µM	> 100 µM	> 100 µM	> 100 µM	> 51.3 µM	39.3 µM	> 40.8 µM
CC(C)(CO)Nc1c(O)c2c(c(O)c1Cl)C(=O)C=CC2=O	4.8 µM	2.9 µM	3.41 µM	1.78 µM	2.88 µM	3.11 µM	2.35 µM	2.71 µM	2.22 µM	2.95 µM	2.78 µM	4.26 µM	3.5 µM
CC(=O)c1c2c(cc3c1CCC3)CCC2	> 100 µM	> 100 µM	> 100 µM	> 100 µM	> 100 µM	> 100 µM	> 100 µM	> 100 µM	> 100 µM	> 100 µM	> 100 µM	> 100 µM	> 100 µM
COc1ccc(C(OCC2OC(n3ccc(Oc4c(F)c(F)c(F)c(F)c4F)nc3=O)CC2OP(OCCC#N)N(C(C)C)C(C)C)(c2ccccc2)c2ccc(OC)cc2)cc1 (stereo unspecified)	> 100 µM	> 100 µM	> 100 µM	> 100 µM	> 100 µM	> 100 µM	> 100 µM	> 100 µM	> 100 µM	> 100 µM	> 100 µM	> 100 µM	> 100 µM
NC(=O)c1nnc2c(F)cccc2c1N	> 100 µM	> 100 µM	> 100 µM	> 100 µM	> 100 µM	> 100 µM	> 100 µM	> 100 µM	> 100 µM	> 100 µM	> 100 µM	> 100 µM	> 100 µM
O=C1CSC2=NC3=C(COC/C3=C\c3ccc(F)cc3)C(c3ccc(F)cc3)N12 (stereo unspecified)	> 100 µM	> 100 µM	> 100 µM	> 100 µM	> 100 µM	> 100 µM	> 100 µM	> 100 µM	> 100 µM	> 100 µM	> 100 µM	> 100 µM	> 100 µM
CC(=O)OCC12C(OC(C)=O)C[C@@H](C)C3(CC(c4ccoc4)OC3=O)C1CCC(OC(C)=O)C21CO1 (stereo partly specified)	> 100 µM	> 100 µM	> 100 µM	> 100 µM	> 100 µM	> 100 µM	> 100 µM	> 100 µM	> 100 µM	> 100 µM	> 100 µM	> 100 µM	> 100 µM
CCOC(=O)CCC1(C(=O)O[C@@H]2C[C@H](C)CC[C@H]2C(C)C)CCCCC1=O (stereo partly specified)	> 100 µM	> 100 µM	> 100 µM	> 100 µM	> 100 µM	60 µM	> 100 µM	> 100 µM	> 100 µM	> 100 µM	> 100 µM	> 100 µM	> 100 µM
O=C1CSC(c2cc3cc(Br)ccc3nc2Cl)N1c1ccc(F)c(Cl)c1 (stereo unspecified)	> 50 µM	> 50 µM	> 50 µM	> 50 µM	> 50 µM	> 50 µM	> 50 µM	> 50 µM	> 50 µM	> 50 µM	> 50 µM	> 50 µM	> 50 µM
O=C1CCc2c(sc3ncnc(Nc4cccc(Br)c4)c23)C1	23.8 µM	8.31 µM	10.3 µM	> 22.7 µM	5.23 µM	11.6 µM	3.67 µM	21.3 µM	12.4 µM	18.7 µM	12.3 µM	14.8 µM	19.2 µM
COC1OC(=O)C(OC)C(OC)C1OC (stereo unspecified)	> 100 µM	> 100 µM	> 100 µM	> 100 µM	> 100 µM	> 100 µM	> 100 µM	> 100 µM	> 100 µM	> 100 µM	> 100 µM	> 100 µM	> 100 µM
O=C(O)CCC(NC(=O)/C(=C/c1ccccc1)NC(=O)c1ccccc1)C(=O)O (stereo unspecified)	> 100 µM	> 100 µM	> 100 µM	> 100 µM	> 100 µM	> 100 µM	> 100 µM	> 100 µM	> 100 µM	> 100 µM	> 100 µM	> 100 µM	> 100 µM
N#Cc1nc(-c2ccccn2)c(-c2ccccn2)nc1C#N	10.6 µM	> 42.9 µM	19.7 µM	19.4 µM	5.64 µM	14.7 µM	> 36.5 µM	15.3 µM	> 42 µM	17 µM	11.6 µM	5.51 µM	22 µM
